Experimental data from US6046235A, “Sulfur-containing amino acid derivatives” (Santen Pharmaceutical Co., Ltd., priority 1996, dated 2000).
Read-outs that look alike come from different tables or passages of the source.

Molecular target: T1, LTA4 hydrolase (Cavia porcellus, UniProt P19602)
T1 construct: Lungs were excised from a Hartley guinea pig; from tissue; host or cells: Hartley guinea pig lung, 100,000×g supernatant, 40-70% ammonium sulfate fraction, dialyzed
T1 sequence (P19602 1-611): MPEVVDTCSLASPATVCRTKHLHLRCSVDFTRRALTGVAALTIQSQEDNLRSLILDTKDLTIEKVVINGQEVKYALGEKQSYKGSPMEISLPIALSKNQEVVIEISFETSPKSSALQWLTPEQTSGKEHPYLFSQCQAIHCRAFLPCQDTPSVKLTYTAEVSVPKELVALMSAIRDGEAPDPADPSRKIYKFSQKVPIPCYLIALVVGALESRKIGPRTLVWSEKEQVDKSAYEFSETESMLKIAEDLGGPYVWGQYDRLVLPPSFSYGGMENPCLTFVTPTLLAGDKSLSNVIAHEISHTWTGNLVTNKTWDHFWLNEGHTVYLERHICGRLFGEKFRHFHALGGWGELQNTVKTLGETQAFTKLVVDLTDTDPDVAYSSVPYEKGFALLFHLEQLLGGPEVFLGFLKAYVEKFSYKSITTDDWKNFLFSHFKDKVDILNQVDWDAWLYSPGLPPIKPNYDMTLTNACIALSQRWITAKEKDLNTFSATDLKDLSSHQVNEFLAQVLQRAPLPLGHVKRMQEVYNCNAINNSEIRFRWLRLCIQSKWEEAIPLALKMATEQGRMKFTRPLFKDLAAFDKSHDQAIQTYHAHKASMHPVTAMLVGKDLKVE
Test: LTA4 hydrolase inhibition (LTB4 formed from LTA4, guinea pig lung enzyme preparation)
Assay type: biochemical
Method: Effects of the present compounds on LTA4 hydrolase were examined according to the method described in the literature.
Lungs were excised from a Hartley guinea pig (body weight: 330 g). The lungs were homogenized in phosphoric acid buffer (50 mM, pH 7.4, containing 1 mM ethylenediaminetetraacetic acid (EDTA) and 1 mM dithiothreitol (DTT) having weight three times that of the lungs under ice-cooling. The homogenate was centrifuged at low speed (800×g) for 20 minutes, centrifuged at high speed (10,000×g) for 20 minutes and ultracentrifuged (100,000×g) for 60 minutes to give a supernatant. The supernatant was brought to 40% saturation by adding a saturated aqueous ammonium sulfate solution (pH 7.0-7.2, containing 1 mM DTT) dropwise under ice-cooling and centrifuged at high speed (10,000×g) for 20 minutes. The resulting supernatant was brought to 70% saturation by adding a saturated aqueous ammonium sulfate solution (pH 7.0-7.2, containing 1 mM DTT) dropwise and centrifuged at high speed (10,000×g) for 20 minutes. The obtained pellet was dissolved in 2 ml of Tris-acetic acid buffer (20 mM, pH 7.8, containing 1 mM DTT) and dialyzed in 2 liters of the solution to give the enzyme preparation.
LTA4 used, which is the substrate, was prepared by hydrolyzing LTA4 methyl ester and dissolved in ethanol.
In order to examine effects of the present compounds on the enzyme preparation, reactions were performed under the following condition using mixed solutions consisting of the composition shown in Table 1.
HEPES buffer 50 mM, pH 7.8
Enzyme preparation 0.4-0.6 mg protein
Aqueous DTT solution 3 mM
The above-mentioned solution (50 μl ) was incubated at 37° C. for one minute. To the reaction mixture was added 100 μl of a mixed liquid of acetonitrile-ethanol-acetic acid (150:50:3, volume ratio) under ice-cooling. The mixture was allowed to stand at -20° C. for 30 minutes and centrifuged at high speed (10,000×g) for five minutes to give a supernatant. An amount of LTB4 produced in the supernatant was measured by high-speed liquid chromatography.
The degree of the inhibitory effect of each test compound on LTA4 hydrolase is expressed by the inhibition rate calculated by the following equation. [formula]
A: amount of LTB4 formed in the absence of the test compound
B: amount of LTB4 formed in the presence of the test compound
Experiments were carried out under the same conditions as those of the above-mentioned "Pharmacological Test".

[1] = Table 2, guinea pig lung enzyme preparation, LTA4 63 μM, 37° C., one minute, pH 7.8, read-out: IC50 (concentration required to inhibit LTA4 hydrolase by 50%)

| Structure (SMILES) | IC50 [1] [nM] | further results |
| --- | --- | --- |
| C[C@H](CS)C(=O)N[C@@H](CSCc1ccc(C(F)(F)F)cc1)C(=O)O [Compound No. 2-13, (2R)-2-[(2S)-3-Mercapto-2-methylpropionylamino]-3-(4-trifluoromethylbenzylthio)propionic acid] | 140 |  |
| CC(C)c1ccc(C(C)SC[C@H](NC(=O)[C@H](C)CS)C(=O)O)cc1 (stereo partly drawn) [Compound No. 2-30, (2R)-2-[(2S)-3-Mercapto-2-methylpropionylamino]-3-[(α-methyl-4-isopropyl)benzylthio]propionic acid] | 55 |  |
| C[C@H](CSC(=O)c1ccccc1)C(=O)N[C@@H](CSCc1ccc(C(F)(F)F)cc1)C(=O)O [Compound No. 1-13, (2R)-2-[(2S)-3-(Benzoylthio)-2-methylpropionylamino]-3-(4-trifluoromethylbenzylthio)propionic acid] | 100 |  |
| C[C@H](CS)C(=O)N[C@@H](CSCc1ccc(S(C)(=O)=O)cc1)C(=O)O [Compound No. 2-26, (2R)-2-[(2S)-3-Mercapto-2-methylpropionylamino]-3-(4-methylsulfonylbenzylthio)propionic acid] | 160 |  |
| CC(SC[C@H](NC(=O)[C@H](C)CS)C(=O)O)c1ccc(C(C)(C)C)cc1 (stereo partly drawn) [Compound No. 2-34, (2R)-3-[(4-tert-Butyl-α-methyl)benzylthio]-2-[(2R)-3-mercapto-2-methylpropionylamino]propionic acid] | 68 |  |
| CCc1ccc(CSC[C@H](NC(=O)[C@H](C)CS)C(=O)O)cc1 [Compound No. 2-8, (2R)-3-(4-Ethylbenzylthio)-2-[(2S)-3-mercapto-2-methylpropionylamino]propionic acid] | 280 |  |
| CC(C)c1ccc(CSC[C@H](NC(=O)[C@H](C)CS)C(=O)O)cc1 [Compound No. 2-10, (2R)-3-(4-Isopropylbenzylthio)-2-[(2S)-3-mercapto-2-methylpropionylamino]propionic acid] | 200 |  |
| C[C@H](CSC(=O)c1ccccc1)C(=O)N[C@@H](CSCc1ccc(C(C)(C)C)cc1)C(=O)O [Compound No. 1-11, (2R)-2-[(2S)-3-(Benzoylthio)-2-methylpropionylamino]-3-(4-tert-butylbenzylthio) propionic acid] | 32 |  |
| CCc1ccc(CSC[C@H](NC(=O)[C@H](C)CSC(=O)c2ccccc2)C(=O)O)cc1 [Compound No. 1-8, (2R)-2-[(2S)-3-(Benzoylthio)-2-methylpropionylamino]-3-(4-ethylbenzylthio)propionic acid] | 120 |  |
| C[C@H](CSC(=O)c1ccccc1)C(=O)N[C@@H](CSCc1ccc(S(C)(=O)=O)cc1)C(=O)O [Compound No. 1-26, (2R)-2-[(2S)-3-(Benzoylthio)-2-methylpropionylamino]-3-(4-methylsulfonylbenzylthio)propionic acid] | 200 |  |
| CCCc1ccc(CSC[C@H](NC(=O)[C@H](C)CS)C(=O)O)cc1 [Compound No. 2-9, (2R)-2-[(2S)-3-Mercapto-2-methylpropionylamino]-3-(4-propylbenzylthio)propionic acid] | 72 |  |
| CCC(SC[C@H](NC(=O)[C@H](C)CS)C(=O)O)c1ccc(C(C)C)cc1 (stereo partly drawn) [Compound No. 2-33, (2R)-3-[(α-Ethyl-4-isopropyl)benzylthio]-2-[(2S)-3-mercapto-2-methylpropionylamino]propionic acid] | 67 |  |
| CC(C)c1ccc(C(C)(C)SC[C@H](NC(=O)[C@H](C)CS)C(=O)O)cc1 [Compound No. 2-32, (2R)-2-[(2S)-3-Mercapto-2-methylpropionylamino]-3-[(α,α-dimethyl-4-isopropyl)benzylthio]propionic acid] | 25 |  |
| CC(C)(C)c1ccc(CSC[C@H](NC(=O)C(CS)Cc2ccccc2)C(=O)O)cc1 (some centres unmarked) [known compound [II], reference compound] |  | inhibitory effect on LTA4 hydrolase relative to that of the present compound (No. 2-12) (Comparison Test, ratio to compound No. 2-12): about 1/100; inhibitory effect on LTA4 hydrolase relative to those of the present compounds (Comparison Test, ratio to the present compounds): one tenth; IC50 (Comparison Test, same conditions as Pharmacological Test, read-out: IC50): 4500 nM |
| CCCc1ccc(CSC[C@H](NC(=O)[C@H](C)CSC(=O)c2ccccc2)C(=O)O)cc1 [Compound No. 1-9, (2R)-2-[(2S)-3-(Benzoylthio)-2-methylpropionylamino]-3-(4-propylbenzylthio)propionic acid] | 170 |  |
| CSc1ccc(CSC[C@H](NC(=O)[C@H](C)CSC(=O)c2ccccc2)C(=O)O)cc1 [Compound No. 1-16, (2R)-2-[(2S)-3-(Benzoylthio)-2-methylpropionylamino]-3-(4-methylthiobenzylthio)propionic acid] | 110 |  |
| C[C@H](CS)C(=O)N[C@@H](CSC(C)(C)c1ccc(C2CCCCC2)cc1)C(=O)O [Compound No. 2-39, (2R)-3-[(4-Cyclohexyl-α,α-dimethyl)benzylthio]-2-[(2S)-3-mercapto-2-methylpropionylamino]propionic acid] | 55 |  |
| C[C@H](CSC(=O)c1ccccc1)C(=O)N[C@@H](CSCc1ccc(Cl)cc1)C(=O)O [Compound No. 1-23, (2R)-2-[(2S)-3-(Benzoylthio)-2-methylpropionylamino]-3-(4-chlorobenzylthio)propionic acid] | 300 |  |
| CC(CS)C(=O)N[C@@H](CSCc1ccccc1)C(=O)O (some centres unmarked) [known compound [I], reference compound] |  | inhibitory effect on LTA4 hydrolase (Comparison Test, even at a concentration of 10^-5 M): little inhibitory effect |
| C[C@H](CS)C(=O)N[C@@H](CSCc1ccc(I)cc1)C(=O)O [Compound No. 2-25, (2R)-3-(4-Iodobenzylthio)-2-[(2S)-3-mercapto-2-methylpropionylamino]propionic acid] | 15 |  |
| C[C@H](CSC(=O)c1ccccc1)C(=O)N[C@@H](CSCc1ccc(OC(F)(F)F)cc1)C(=O)O [Compound No. 1-18, (2R)-2-[(2S)-3-(Benzoylthio)-2-methylpropionylamino]-3-(4-trifluoromethoxybenzylthio)propionic acid] | 100 |  |
| CC(C)c1ccc(CSC[C@H](NC(=O)[C@H](C)CSC(=O)c2ccccc2)C(=O)O)cc1 [Compound No. 1-10, (2R)-2-[(2S)-3-(Benzoylthio)-2-methylpropionylamino]-3-(4-isopropylbenzylthio)propionic acid] | 120 |  |
| C[C@H](CSC(=O)c1ccccc1)C(=O)N[C@@H](CSCc1ccc(Br)cc1)C(=O)O [Compound No. 1-24, (2R)-2-[(2S)-3-(Benzoylthio)-2-methylpropionylamino]-3-(4-bromobenzylthio)propionic acid] | 310 |  |
| C[C@H](CS)C(=O)N[C@@H](CSCc1ccc(C(C)(C)C)cc1)C(=O)O [Compound No. 2-11, (2R)-3-(4-tert-Butylbenzylthio)-2-[(2S)-3-mercapto-2-methylpropionylamino]propionic acid] | 24 |  |
| C[C@H](CSC(=O)c1ccccc1)C(=O)N[C@@H](CSCc1ccc(I)cc1)C(=O)O [Compound No. 1-25, (2R)-2-[(2S)-3-(Benzoylthio)-2-methylpropionylamino]-3-(4-iodobenzylthio)propionic acid] | 51 |  |
| CC(CS)C(=O)N[C@@H](CSCc1ccc(C(C)(C)C)cc1)C(=O)O (stereo partly drawn) [Compound No. 2-12, (2R)-3-(4-tert-Butylbenzylthio)-2-[(2RS)-3-mercapto-2-5 methylpropionylamino]propionic acid] | 58 |  |
| C[C@H](CS)C(=O)N[C@@H](CSCc1ccc(C2CCCCC2)cc1)C(=O)O [Compound No. 2-35, (2R)-3-(4-Cyclohexylbenzylthio)-2-[(2S)-3-mercapto-2-methylpropionylamino]propionic acid] | 79 |  |
